The source of these data is ChEMBL document CHEMBL5512667, “Discovery of Potent, Selective, and Orally Available IRE1α Inhibitors Demonstrating Comparable PD Modulation to IRE1 Knockdown in a Multiple Myeloma Model” (J Med Chem, 2024).

Series [1] deals with T1, Serine/threonine-protein kinase/endoribonuclease IRE1 (Homo sapiens, UniProt O75460). Briefly: Inhibition of IRE1alpha RNase activity (unknown origin) using XBP1 as substrate preincubated for 1 hr followed by thapsigargin stimulation for 5 hrs by One-Glo luciferase reagent based luminescence assay.
Target sequence in this assay (O75460 whole entry, the tested form may be a part): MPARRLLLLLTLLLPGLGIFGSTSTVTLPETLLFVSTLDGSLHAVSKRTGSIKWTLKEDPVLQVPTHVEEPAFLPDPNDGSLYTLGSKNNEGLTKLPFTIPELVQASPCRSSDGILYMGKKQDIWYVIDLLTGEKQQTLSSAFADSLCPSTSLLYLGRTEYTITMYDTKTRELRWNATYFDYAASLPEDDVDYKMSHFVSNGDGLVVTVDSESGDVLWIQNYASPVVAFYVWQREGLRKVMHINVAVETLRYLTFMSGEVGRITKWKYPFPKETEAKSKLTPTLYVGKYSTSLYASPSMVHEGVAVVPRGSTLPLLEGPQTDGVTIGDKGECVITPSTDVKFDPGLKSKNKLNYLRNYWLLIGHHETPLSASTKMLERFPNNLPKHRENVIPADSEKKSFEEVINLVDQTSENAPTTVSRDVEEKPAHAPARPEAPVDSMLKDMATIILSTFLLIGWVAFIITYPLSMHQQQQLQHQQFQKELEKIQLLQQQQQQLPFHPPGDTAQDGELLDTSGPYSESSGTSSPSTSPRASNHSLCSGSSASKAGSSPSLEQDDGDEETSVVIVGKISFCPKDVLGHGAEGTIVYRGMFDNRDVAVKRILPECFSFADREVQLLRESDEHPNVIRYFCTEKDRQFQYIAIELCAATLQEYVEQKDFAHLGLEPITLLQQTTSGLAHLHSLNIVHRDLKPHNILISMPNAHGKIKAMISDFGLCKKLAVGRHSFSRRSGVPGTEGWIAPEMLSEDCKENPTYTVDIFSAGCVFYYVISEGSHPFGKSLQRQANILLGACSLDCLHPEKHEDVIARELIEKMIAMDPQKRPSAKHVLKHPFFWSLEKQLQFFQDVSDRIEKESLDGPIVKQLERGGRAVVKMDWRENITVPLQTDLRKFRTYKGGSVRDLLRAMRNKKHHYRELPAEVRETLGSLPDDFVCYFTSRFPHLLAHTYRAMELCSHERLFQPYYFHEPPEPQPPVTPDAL
Series [2] deals with T1, Serine/threonine-protein kinase/endoribonuclease IRE1. Description: Inhibition of IRE1alpha RNase activity (Q470 to L977 residues) (unknown origin) expressed in Sf9 cells using mini-XBP-1 stem-loop RNA as substrate measured every 2 mins interval for 50 mins by FRET assay.
Target sequence in this assay (O75460 whole entry, the tested form may be a part): as above
For series [3] the target is unchanged. Description: Inhibition of His-tagged IRE1alpha (G547 to L977 residues) (unknown origin) expressed in Sf9 cells preincubated with anti-His Europium labeled antibody for 1 hr prior to compound addition followed by tracer 236 addition and measured after 1 hr by TR-FRET assay. (In general: Time-resolved FRET reads energy transfer from a long-lived donor to a nearby acceptor.)
Target sequence in this assay (O75460 whole entry, the tested form may be a part): as above

Series [4] is described as follows: Permeability across apical to basolateral side in MDCK cells. The following applies: dog, read-out: permeability. It is filed as ADME, cell-based, Canis lupus familiaris.
Series [5] in a line: Apparent permeability across apical to basolateral side in MDCK cells at 10 uM incubated for 3 hrs by LC-MS/MS method. It is filed as ADME, cell-based, Canis lupus familiaris. The following applies: dog.
Series [6] can be described thus: Selectivity ratio of inhibition of HIPK4 (unknown origin) to inhibition of IRE1alpha (unknown origin).
The nature of series [7]: Toxicity in Sprague-Dawley rat assessed as hepatocellular hypertrophy at >= 150 mg/kg, po administered twice daily for 7 days. It is filed as organism-based. As to conditions: in vivo, 168 h, time 7 day.
Series [8] can be described thus: Toxicity in Sprague-Dawley rat assessed as increase in hepatic weight at >= 150 mg/kg, po administered twice daily for 7 days. It is filed as organism-based. As to conditions: in vivo, 168 h, time 7 day.
Series [9] in a line: Toxicity in Sprague-Dawley rat assessed as increase in hepatic enzyme level at 500 mg/kg, po administered twice daily for 7 days. It is filed as organism-based. As to conditions: in vivo, 168 h, time 7 day.
Series [10] is described as follows: Toxicity in Sprague-Dawley rat assessed as tolerability upto 500 mg/kg, po administered twice daily for 7 days. The class given is organism-based. The following applies: in vivo, 168 h, time 7 day.
The nature of series [11]: Plasma protein binding in mouse incubated for 4 hrs by LC-MS/MS based rapid equilibrium dialysis method. It is filed as ADME, cell-free. The following applies: read-out: PPB (converted). On the technique in general: In equilibrium dialysis only unbound substance equilibrates across the membrane.
Series [12] in a line: Kinetic solubility of compound at pH 7.4. The class given is physicochemical. The following applies: buffer, read-out: Kinetic_solubility.
The nature of series [13]: Volume of distribution at steady state in CD-1 mouse at 10 mg/kg, po or 1 mg/kg, iv measured upto 24 hrs by LC-MS/MS analysis. As to conditions: in vivo. The class given is ADME, organism-based.
The nature of series [14]: Half-life in CD-1 mouse at 10 mg/kg, po or 1 mg/kg, iv measured upto 24 hrs by LC-MS/MS analysis. The following applies: in vivo. The class given is ADME, organism-based.
Series [15] can be described thus: Bioavailability in CD-1 mouse at 10 mg/kg, po or 1 mg/kg, iv measured upto 24 hrs by LC-MS/MS analysis. As to conditions: in vivo. It is filed as ADME, organism-based.
Series [16] can be described thus: Toxicity in Sprague-Dawley rat assessed as decrease in thymus weight at 500 mg/kg, po administered twice daily for 7 days. The class given is organism-based. As to conditions: in vivo, 168 h, time 7 day.
The nature of series [17]: Toxicity in Sprague-Dawley rat assessed as decrease in thymic lymphoid depletion at 500 mg/kg, po administered twice daily for 7 days. It is filed as organism-based. As to conditions: in vivo, 168 h, time 7 day.
Series [18] in a line: Cmax in Sprague-Dawley rat at 500 mg/kg, po administered twice daily for 7 days. The class given is ADME, organism-based. As to conditions: in vivo, time 7 day.
Series [19] is described as follows: AUC in Sprague-Dawley rat at 500 mg/kg, po administered twice daily for 7 days. It is filed as ADME, organism-based. The following applies: in vivo, time 7 day.
A short description of series [20]: Cmax in Sprague-Dawley rat at >= 150 mg/kg, po administered twice daily for 7 days. It is filed as ADME, organism-based. As to conditions: in vivo, time 7 day.
Series [21] can be described thus: AUC in Sprague-Dawley rat at >= 150 mg/kg, po administered twice daily for 7 days. It is filed as ADME, organism-based. As to conditions: in vivo, time 7 day.
Series [22] has as its target T1, Serine/threonine-protein kinase/endoribonuclease IRE1. Description: Inhibition of IRE1alpha in human KMS-11 cells assessed as reduction in XBP1 splicing preincubated for 24 hrs followed by thapsigargin addition and measured after 30 mins by luminescence assay. It is filed as cell-based.
Series [23] shares this target. Briefly: Inhibition of IRE1alpha in human KMS-11 cells assessed as reduction in XBP1 splicing preincubated for 24 hrs followed by thapsigargin addition and measured after 30 mins under FCS medium by luminescence assay. It is filed as cell-based.
For series [24] the target is unchanged. Briefly: Inhibition of IRE1alpha RNase activity (unknown origin) using XBP1 as substrate preincubated for 1 hr followed by thapsigargin stimulation for 5 hrs under FCS medium by One-Glo luciferase reagent based luminescence assay.
Target sequence in this assay (O75460 whole entry, the tested form may be a part): as above
In series [25] the test system is Mus musculus. Description: In vivo inhibition of IRE1alpha in SCID mouse xenografted with human KMS-11 cells assessed as suppression of XBP1 level in tumor at 250 mg/kg, po BID measured upto 12 hrs. It is filed as functional, organism-based.
In series [26] the test system is Mus musculus. Description: In vivo inhibition of IRE1alpha in SCID mouse xenografted with human KMS-11 cells assessed as suppression of XBP1 level in tumor at 250 mg/kg, po BID measured after 16 to 24 hrs. The following applies: time 16-24 hrs. It is filed as functional, organism-based. On the technique in general: Xenograft models place foreign cells or tissue in a host animal.

In brackets after ≈: the same amount, converted by molar mass. Activity calls are given as the source filed them.

By IC50 is commonly meant the concentration at which inhibition is half-maximal. Consider `Cc1ccc2c(NS(=O)(=O)c3ccccc3Cl)cccc2c1Oc1ncccc1-c1ccnc(N[C@H]2CCCNC2)n1`, for which the IC50 in series [1] is 40 nM; in series [2], 9.2 nM; in series [3], 0.48 nM. Moreover, the Papp A→B in series [4] amounted to 1 ×10⁻⁶ cm/s.

In general, half-life refers to the time needed for the level to fall by half in the phase considered. A low value points to rapid decline. The term Cmax denotes the highest concentration seen after dosing. One may read the AUC as the area under the concentration-time curve, a measure of exposure. Low readings indicate low exposure, high ones high exposure. For orientation: IC90 means the point of the concentration-response curve where the effect stands at 90%. As to `O=S(=O)(Cc1ccccc1)Nc1c(F)cc(Oc2ncccc2-c2ccnc(N[C@@H]3CNC[C@@H](F)C3)n2)c(F)c1F`, in [5], the Papp A→B at 3 h, 10 µM worked out at 8.7 ×10⁻⁶ cm/s. In series [6], the Selectivity ratio amounted to 83. Further, the IC50 in [1] came out at 32 nM; in [2] it was 4.3 nM; in series [3], 0.27 nM; in [22], 64 nM; in [23], 8 nM; in series [24], 4 nM. Further, the Activity entry in [7] is listed as “Toxic”; in series [8], “Toxic”; in series [9], “Toxic”; in [10], “Non-Toxic”; in [16] it was “Toxic”; in series [17], “Toxic”. Also, in series [11], the fraction unbound at 4 h was 0.029. Also, the solubility kinetic in series [12] came out at 65 µM (≈ 38.3 µg/mL). In [13], this compound displayed a Vdss of 1.05 L/kg. Moreover, the half-life in series [14] is 33 min. Moreover, in [15], the bioavailability stood at 149%. The figures for the Cmax in series [18] and in [20] were 104 µg/mL and 28.9 µg/mL, respectively. In addition, the AUC at 168 h in series [19] was determined as 909 µg·h/mL; in [21], 170 µg·h/mL. In addition, the IC90 stood at 650 nM in series [22] (time 24.5 hrs) and 79 nM in series [23] (time 24.5 hrs). Also, the inhibition entry in [25] is “Active”. Besides, the inhibition entry in [26] is “inactive”.
